Data from patent publication US8137946B2, “Recombinant GRAS strains expressing thermophilic arabinose isomerase as an active form and method of preparing food grade tagatose by using the same” (CJ Cheiljedang Corporation, priority 2006, dated 2012).
Where “and” joins values, the source holds several entries; their conditions need not be identical. Equal values may be shown once.

What was measured:
[1] = target: T1, Geobacillus thermodenitrificans arabinose isomerase (mGTAI), recombinant, expressed in and purified from Corynebacterium glutamicum mGTAIC001 (Geobacillus thermodenitrificans, UniProt A4IPA1, C449S/N474K); assay: Enzyme kinetics of purified recombinant arabinose isomerase (isomerization of galactose into tagatose)
T1 sequence (A4IPA1 with tags, fused parts or gaps C449S/N474K): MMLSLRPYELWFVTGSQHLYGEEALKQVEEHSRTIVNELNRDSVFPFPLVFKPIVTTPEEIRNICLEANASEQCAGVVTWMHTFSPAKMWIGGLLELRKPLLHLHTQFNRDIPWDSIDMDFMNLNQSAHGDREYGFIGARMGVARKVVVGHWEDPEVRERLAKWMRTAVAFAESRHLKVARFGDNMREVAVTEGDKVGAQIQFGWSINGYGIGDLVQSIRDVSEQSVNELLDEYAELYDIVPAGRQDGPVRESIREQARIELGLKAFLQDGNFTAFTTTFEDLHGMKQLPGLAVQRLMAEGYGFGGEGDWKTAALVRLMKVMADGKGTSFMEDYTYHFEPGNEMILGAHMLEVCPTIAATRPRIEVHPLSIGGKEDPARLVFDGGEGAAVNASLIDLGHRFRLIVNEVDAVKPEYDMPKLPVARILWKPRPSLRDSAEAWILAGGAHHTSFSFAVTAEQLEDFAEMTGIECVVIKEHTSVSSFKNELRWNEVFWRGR
Experimental: The culture solution was centrifuged at 8000×g for 10 minutes and cells were recovered. The cells were resuspended in 50 mM Tris-HCl (pH 7.0) buffer, and used for the protein purification. The cell suspension progressed to cell lysis using a high pressure cell homogenizer T-series (4.0 kW; Constant systems, UK), followed by heat-treatment at […] for 20 minutes. Centrifugation was performed at 10,000×g for 10 minutes to separate the expressed recombinant thermophilic arabinose isomerase.
The separated recombinant enzyme solution was filtered by ultrafiltration (MW: 10,000; Sartorius, U.S.A.) and was purified by Q Sepharose Fast Flow (anion exchange column) (staring buffer: 20 mM Tris-HCl, pH 7.5, elution buffer: 20 mM Tris-HCl (pH 7.5)+500 mM NaCl). The protein was purified by FPLC system and it was analyzed by SDS-PAGE.
The activity of the enzyme was measured by the cystein-carbazol-sulfuric acid method (Dische, Z., and E. Borenfreund., A New Spectrophotometric Method for the Detection and Determination of Keto Sugars and Trioses, J. Biol. Chem., 192:583-587, 1951). The fraction contained in the enzyme solution was analysed by SDS-PAGE.
The activity of the enzyme was measured in the reaction buffer (50 mM Tris-HCl, pH 7.0, 1 mM MnCl2 was added) at 55° C. to 85° C. (at intervals of 5° C.). The activity of the enzyme was measured by the cystein-carbazol-sulfuric acid method (Dische, Z., and E. Borenfreund., A New Spectrophotometric Method for the Detection and Determination of Keto Sugars and Trioses, J. Biol. Chem., 192:583-587, 1951).
To measure the enzyme kinetics of purified arabinose isomerase of the present invention, kinetic parameters were determined at 60° C., 65° C. and 70° C. (table 5).

[2] = substrate: OC[C@H]1OC(O)[C@H](O)[C@@H](O)[C@H]1O; assay: purified protein, by the assay type

Molecule	kcat/Km ([1]; 60° C.)	νmax ([1]; 60° C.)	kcat/Km ([1]; 65° C.)	νmax ([1]; 65° C.)	Km increase (times) relative to 60° C. ([1]; 65° C. and 70° C. vs 60° C.)	kcat/Km ([1]; 70° C.)	νmax ([1]; 70° C.)	Km ([2]; other: 60° C.)	kcat/Km ([2]; other: 65° C.)
OC[C@H]1OC(O)[C@H](O)[C@@H](O)[C@H]1O (stereo partly drawn) [galactose]	35 M⁻¹ s⁻¹ and 35 ± 0.67 M⁻¹ s⁻¹	2.5 U/mg and 2.5 ± 0.07 U/mg	38.3 ± 0.5 M⁻¹ s⁻¹	6.5 U/mg and 6.5 ± 0.57 U/mg	2.4 times	53.3 M⁻¹ s⁻¹ and 53.3 ± 0.67 M⁻¹ s⁻¹	9.1 U/mg and 9.1 ± 1.42 U/mg	–	–
Geobacillus thermodenitrificans arabinose isomerase (mGTAI), recombinant, expressed in and purified from Corynebacterium glutamicum mGTAIC001 (Geobacillus … (protein) MMLSLRPYELWFVTGSQHLYGEEALKQVEEHSRTIVNELNRDSVFPFPLVFKPIVTTPEEIRNICLEANASEQCAGVVTWMHTFSPAKMWIGGLLELRKPLLHLHTQFNRDIPWDSIDMDFMNLNQSAHGDREYGFIGARMGVARKVVVGHWEDPEVRERLAKWMRTAVAFAESRHLKVARFGDNMREVAVTEGDKVGAQIQFGWSINGYGIGDLVQSIRDVSEQSVNELLDEYAELYDIVPAGRQDGPVRESIREQARIELGLKAFLQDGNFTAFTTTFEDLHGMKQLPGLAVQRLMAEGYGFGGEGDWKTAALVRLMKVMADGKGTSFMEDYTYHFEPGNEMILGAHMLEVCPTIAATRPRIEVHPLSIGGKEDPARLVFDGGEGAAVNASLIDLGHRFRLIVNEVDAVKPEYDMPKLPVARILWKPRPSLRDSAEAWILAGGAHHTSFSFAVTAEQLEDFAEMTGIECVVIKEHTSVSSFKNELRWNEVFWRGR	–	–	–	–	–	–	–	67.0 ± 2.98 mM	38.3 M⁻¹ s⁻¹
